# Assay results reported in US10851053B2, “Chemical compounds” (GlaxoSmithKline Intellectual Property Development Limited, priority 2016, dated 2020).
# System: ATF4 translation (ATF4 pathway), SH-SY5Y-ATF4-NanoLuc cells
# Experiment: ATF4 cell based assay (ATF4 5'-UTR NanoLuc luciferase reporter, Thapsigargin induced cellular stress)
# Conditions: SH-SY5Y-ATF4-NanoLuc cells challenged with Thapsigargin for 14-18 hours; average of two or more experimental runs; read-out: average ATF4 pathway inhibitory activity (IC50)
# Description: The ATF4 reporter assay measures the effect of Thapsigargin induced cellular stress on ATF4 expression. For this reporter assay, a stable cell line was created by transfecting SH-SY5Y cells with a plasmid containing the NanoLuc® luciferase gene fused to the 5′-UTR of ATF4, under the control of the CMV promoter. The ATF4 5′-UTR contains two open reading frames which mediate the cellular stress-dependent translation of the reporter gene. Clones stably expressing the reporter construct were isolated and selected based on the luminescence response to thapsigargin and inhibition of this signal by test compounds. Briefly, SH-SY5Y-ATF4-NanoLuc cells were challenged with Thapsigargin for 14-18 hours to determine the stress effect with or without test compounds.
# Cells were propagated in growth media consisting of 90% DMEM F12 (InVitrogen #11320-033), 10% Fetal Bovine Serum (Gibco #10438-026), 5 mM Glutamax (Gibco #35050-061), 5 mM Hepes, (Gibco #15630-080), and 0.5 mg/ml Geneticin (Gibco #10131-027). Cells were prepared for the assay by removing all media from cells, washing the plated cells with phosphate buffered saline, and detached by adding a solution comprised of 10% Tryple express solution (InVitrogen12604-021) and 90% enzyme-free cell dissociation buffer HANKS base (Gibco 13150-016). The trypsin was deactivated by adding assay media comprised of 90% phenol-red free DMEM F12 (InVitrogen, 11039), 10% Fetal Bovine Serum (Gibco #10438-026), (5 mM Glutamax (Gibco #35050-061), 5 mM Hepes, (Gibco #15630-080), and 0.5 mg/ml Geneticin (Gibco #10131-027). Suspended cells were spun down at 300 g for 5 min, the supernatant was removed and the cell pellet was suspended in warm media (30-37° C.) comprised as above at (1e6 cell/ml).
# Assay plates were prepared by adding 250 nL of compound stock solution in 100% DMSO to each well, followed by dispensing 20 microliters/well cell suspension to deliver 15-20 k cell/well. Cells were incubated for 1 hour at 37° C. Then, 5 μL of 1.5 μM or 1 μM of Thapsigargin (final concentration: 200-300 nM) was added to each well of cells. Assay plates containing cells were incubated for 14-18 hours at 37° C.
# The measurement of luciferase produced by the ATF4 constructs was measured as follows. Aliquots of the Nano-Glo reagent (Nano-Glo® Luciferase Assay Substrate, Promega, N113, Nano-Glo® Luciferase Assay Buffer, Promega, N112 (parts of Nano-Glo® Luciferase Assay System, N1150) were brought to room temperature, the substrate and buffer were mixed according to manufacturer's instructions. The cell plates were equilibrated to room temperature. 25 microliters/well of the mixed Nano-Glo reagent were dispensed into assay wells and pulse spun to settle contents and the plate was sealed with film. The plates were incubated at room temperature for 1 hour before detecting luminescence on an Envision plate reader.
# Compounds of the invention are tested for activity against ATF4 translation in the above assay.
row,Compound,IC50 [nM]
1,"O=C(COc1ccc(Cl)cc1)NCC1CCN(C(=O)COc2ccc(Cl)nc2)C1 (racemic) [Example 20, 2-(4-chlorophenoxy)-N-((1-(2-((6-chloropyridin-3-yl)oxy)acetyl)pyrrolidin-3-yl)methyl)acetamide]",1000 to 10000
2,"O=C(COc1ccc(Cl)cc1)NCC1CCN(C(=O)COc2ccc(Cl)nc2)C1 (single isomer, unassigned) [Example 11, 2-(4-chlorophenoxy)-N-((1-(2-((6-chloropyridin-3-yl)oxy)acetyl)pyrrolidin-3-yl)methyl)acetamide]",1000 to 10000
3,"O=C(COc1ccc(Cl)cc1)N1CC2CN(C(=O)COc3ccc(Cl)cc3)CC2C1 (centres unmarked) [Example 6, 1,1′-(tetrahydropyrrolo[3,4-c]pyrrole-2,5(1H,3H)-diyl)bis(2-(4-chlorophenoxy)ethanone)]",1000 to 10000
4,"O=C(COc1ccc(Cl)cc1)NC1CCN(C(=O)COc2ccc(Cl)cc2)C1 (centres unmarked) [Example 7, 2-(4-chlorophenoxy)-N-(1-(2-(4-chlorophenoxy)acetyl)pyrrolidin-3-yl)acetamide]",1000 to 10000
5,"O=C(COc1ccc(Cl)cc1)NCC1CCN(C(=O)COc2cncc(Cl)c2)C1 (centres unmarked) [Example 10, 2-(4-chlorophenoxy)-N-((1-(2-((5-chloropyridin-3-yl)oxy)acetyl)pyrrolidin-3-yl)methyl)acetamide]",1000 to 10000
6,"O=C(COc1ccc(Cl)cc1)NCC1CCN(CCOc2ccc(Cl)nc2)C1 (centres unmarked) [Example 13, 2-(4-chlorophenoxy)-N-((1-(2-((6-chloropyridin-3-yl)oxy)ethyl)pyrrolidin-3-yl)methyl)acetamide]",1000 to 10000
7,"CC1(CNC(=O)COc2ccc(Cl)cc2)CCN(C(=O)COc2ccc(Cl)cc2)C1 (centres unmarked) [Example 17, 2-(4-chlorophenoxy)-N-((1-(2-(4-chlorophenoxy)acetyl)-3-methylpyrrolidin-3-yl)methyl)acetamide]",1000 to 10000
8,"O=C(COc1ccc(Cl)nc1)NCC1CCN(C(=O)COc2ccc(Cl)cc2)C1 (centres unmarked) [Example 19, N-((1-(2-(4-chlorophenoxy)acetyl)pyrrolidin-3-yl)methyl)-2-((6-chloropyridin-3-yl)oxy)acetamide]",1000 to 10000
9,"O=C(COc1ccc(Cl)cc1)NCC1CCN(C(=O)N2CCc3cc(Cl)ccc3C2)C1 (centres unmarked) [Example 24, N-((1-(6-chloro-1,2,3,4-tetrahydroisoquinoline-2-carbonyl)pyrrolidin-3-yl)methyl)-2-(4-chlorophenoxy)acetamide]",101 to 1000
10,"O=C(COc1ccc(Cl)cc1)N1CCC2(CCN(C(=O)COc3ccc(Cl)cc3)C2)C1 [Example 26, 1,1′-(2,7-diazaspiro[4.4]nonane-2,7-diyl)bis(2-(4-chlorophenoxy)ethanone)]",1000 to 10000
11,O=C(COc1ccc(Cl)cc1)NC[C@H]1CCN(C(=O)COc2ccc(Cl)cc2)C1 [Example 30],252
12,"O=C(COc1ccc(Cl)cc1)N[C@H]1[C@@H]2CN(C(=O)COc3ccc(Cl)cc3)C[C@@H]21 [Example 31, 2-(4-chlorophenoxy)-N-((1R,5S,6s)-3-(2-(4-chlorophenoxy)acetyl)-3-azabicyclo[3.1.0]hexan-6-yl)acetamide]",101 to 1000

# Next, values leading:
row,IC50 [nM],Compound
1,< 100,"O=C(COc1ccc(Cl)cc1)NC1C[C@@H]2CN(C(=O)COc3ccc(Cl)cc3)CC12 (stereo in doubt) [Example 32, 2-(4-chlorophenoxy)-N-((1S,5R)-3-(2-(4-chlorophenoxy)acetyl)-3-azabicyclo[3.2.0]heptan-6-yl)acetamide]"
2,< 100,"O=C(COc1ccc(Cl)cc1)NCC1CC(=O)N(CCOc2ccc(Cl)cc2)C1 (centres unmarked) [Example 3, 2-(4-chlorophenoxy)-N-((1-(2-(4-chlorophenoxy)ethyl)-5-oxopyrrolidin-3-yl)methyl)acetamide]"
3,< 100,"O=C(COc1ccc(Cl)cc1)NCC1CCN(CC(=O)Nc2ccc(Cl)cc2)C1 (centres unmarked) [Example 4, 2-(4-chlorophenoxy)-N-((1-(2-((4-chlorophenyl)amino)-2-oxoethyl)pyrrolidin-3-yl)methyl)acetamide]"
4,< 100,"O=C(COc1ccc(Cl)cc1)NCC1CCN(C(=O)C2CCc3cc(Cl)ccc3O2)C1 (centres unmarked) [Example 8, N-((1-(6-chlorochroman-2-carbonyl)pyrrolidin-3-yl)methyl)-2-(4-chlorophenoxy)acetamide]"
5,101 to 1000,"O=C(COc1ccc(Cl)cc1)NCC1CCN(C(=O)C2Cc3cc(Cl)ccc3O2)C1 (centres unmarked) [Example 9, N-((1-(5-chloro-2,3-dihydrobenzofuran-2-carbonyl)pyrrolidin-3-yl)methyl)-2-(4-chlorophenoxy)acetamide]"
6,< 100,"O=C(COc1ccc(Cl)cc1)NCC1CCN(C(=O)CCOc2ccc(Cl)cc2)C1 (centres unmarked) [Example 14, 2-(4-chlorophenoxy)-N-((1-(3-(4-chlorophenoxy)propanoyl)pyrrolidin-3-yl)methyl)acetamide]"
7,< 100,"O=C(COc1ccc(Cl)cc1)NCC1CCN(C(=O)OCCc2ccc(Cl)cc2)C1 (centres unmarked) [Example 15, 4-chlorophenethyl 3-((2-(4-chlorophenoxy)acetamido)methyl)pyrrolidine-1-carboxylate]"
8,101 to 1000,"O=C(COc1ccc(Cl)cc1)NCCC1CCN(C(=O)COc2ccc(Cl)cc2)C1 (centres unmarked) [Example 16, 2-(4-chlorophenoxy)-N-(2-(1-(2-(4-chlorophenoxy)acetyl)pyrrolidin-3-yl)ethyl)acetamide]"
9,101 to 1000,"O=C(NCC1CCN(C(=O)COc2ccc(Cl)cc2)C1)C1Cc2cc(Cl)ccc2O1 (centres unmarked) [Example 18, 5-chloro-N-((1-(2-(4-chlorophenoxy)acetyl)pyrrolidin-3-yl)methyl)-2,3-dihydrobenzofuran-2-carboxamide]"
10,101 to 1000,"O=C(COc1ccc(Cl)cc1)N1CCC(CNCCOc2ccc(Cl)cc2)C1 (centres unmarked) [Example 21, 2-(4-chlorophenoxy)-1-(3-(((2-(4-chlorophenoxy)ethyl)amino)methyl)pyrrolidin-1-yl)ethanone]"
11,< 100,"O=C(NCC1CCN(C(=O)COc2ccc(Cl)cc2)C1)C1CCc2cc(Cl)ccc2O1 (centres unmarked) [Example 22, 6-chloro-N-((1-(2-(4-chlorophenoxy)acetyl)pyrrolidin-3-yl)methyl)chroman-2-carboxamide]"
12,< 100,"O=C(COc1ccc(Cl)cc1)NC1CCC2(CC1)CCN(C(=O)COc1ccc(Cl)cc1)C2 (centres unmarked) [Example 23, 2-(4-chlorophenoxy)-N-(2-(2-(4-chlorophenoxy)acetyl)-2-azaspiro[4.5]decan-8-yl)acetamide]"
13,< 100,"O=C(COc1ccc(Cl)cc1)N[C@H]1[C@@H]2CN(CCCOc3ccc(Cl)cc3)C[C@@H]21 [Example 28, 2-(4-chlorophenoxy)-N-((1R,5S,6s)-3-(3-(4-chlorophenoxy)propyl)-3-azabicyclo[3.1.0]hexan-6-yl)acetamide]"

# Same assay, conditions: read-out: average ATF4 pathway inhibitory activity (IC50)
row,Compound,IC50 [nM]
1,"O=C(COc1ccc(Cl)cc1)NCC1CCN(C(=O)COc2ccc(Cl)cc2)C1 (centres unmarked) [Example 1, 2-(4-chlorophenoxy)-N-((1-(2-(4-chlorophenoxy)acetyl)pyrolidin-3-yl)methyl)acetamide]",101 to 1000
2,"O=C(COc1ccc(Cl)cc1)NCC1CCN(CCOc2ccc(Cl)cc2)C1 (centres unmarked) [Example 2, 2-(4-chlorophenoxy)-N-((1-(2-(4-chlorophenoxy)ethyl)pyrrolidin-3-yl)methyl)acetamide]",< 100
3,"O=C(COc1ccc(Cl)cc1)NC[C@@H]1CCN(C(=O)COc2ccc(Cl)cc2)C1 [Example 29, (S)-2-(4-chlorophenoxy)-N-((1-(2-(4-chlorophenoxy)acetyl)pyrrolidin-3-yl)methyl)acetamide]",101 to 1000
4,O=C(COc1ccc(Cl)cc1)NC[C@H]1CCN(C(=O)COc2ccc(Cl)cc2)C1 [Example 30],101 to 1000
